ChEMBL document CHEMBL1143501, “Structure-activity relationship of the novel bivalent and C-terminal modified analogues of endomorphin-2” (Bioorg Med Chem Lett, 2005)
Starred links: 1 amine or outer side, 2 acyl side, 3 side chain; linkers in the order of their positions; H or OH if unused. Positions of bridges follow the written chain, without caps; N, C: chain ends. Residues, ends and D or L forms follow the SMILES beside them. Chains are numbered I, II in the order given. Ethylenediamine = C(CN[*:2])N[*:1]

Columns and labels:
[1] = Mean value of binding constant for Opioid receptors assayed with [3H]DAMGO
[2] = Mean value of binding constant for Opioid receptors assayed with [3H]DPDPE
[3] = Selectivity for Opioid receptor mu 1 to that of Opioid receptor delta 1
[4] = molecular target: Mu-type opioid receptor (Cavia porcellus) (UniProt P97266); assay: Relative potency of EM-2 measured towards Opioid receptor mu 1 assayed with [3H]DAMGO
Mu-type opioid receptor = Mu-type opioid receptor (Cavia porcellus, UniProt P97266); assay: In vitro inhibitory concentration against Opioid receptor mu 1 was measured using guinea pig ileum assay; assay type: tissue-based
[5] = molecular target: Delta-type opioid receptor (Mus musculus, UniProt P32300); assay: In vitro inhibitory concentration against Opioid receptor delta 1 was measured using mouse vas deferens assay
[6] = molecular target: Delta-type opioid receptor (Mus musculus) (UniProt P32300); assay: Relative potency of EM-2 measured towards Opioid receptor delta 1 assayed with [3H]DPDPE
[7] = molecular target: Delta-type opioid receptor (Mus musculus) (UniProt P32300); assay: In vitro potency of EM-2 measured towards Opioid receptor delta 1 using mouse vas deferens assay; assay type: functional, tissue-based
[8] = molecular target: Delta-type opioid receptor (Mus musculus) (UniProt P32300); assay: Ratio of IC50s against Opioid receptor delta 1 was measured in mouse vas deferens to that of guinea pig ileum; assay type: tissue-based
[9] = molecular target: Mu-type opioid receptor (Cavia porcellus) (UniProt P97266); assay: In vitro potency of EM-2 was measured towards Opioid receptor mu 1 using guinea pig ileum assay; assay type: tissue-based

Chain of Mu-type opioid receptor (P97266 whole entry): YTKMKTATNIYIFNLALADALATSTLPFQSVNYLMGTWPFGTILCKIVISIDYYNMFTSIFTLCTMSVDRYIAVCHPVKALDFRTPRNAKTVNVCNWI
Chain of Mu-type opioid receptor (Cavia porcellus) (P97266 whole entry): as above
Chain of Delta-type opioid receptor (P32300 whole entry): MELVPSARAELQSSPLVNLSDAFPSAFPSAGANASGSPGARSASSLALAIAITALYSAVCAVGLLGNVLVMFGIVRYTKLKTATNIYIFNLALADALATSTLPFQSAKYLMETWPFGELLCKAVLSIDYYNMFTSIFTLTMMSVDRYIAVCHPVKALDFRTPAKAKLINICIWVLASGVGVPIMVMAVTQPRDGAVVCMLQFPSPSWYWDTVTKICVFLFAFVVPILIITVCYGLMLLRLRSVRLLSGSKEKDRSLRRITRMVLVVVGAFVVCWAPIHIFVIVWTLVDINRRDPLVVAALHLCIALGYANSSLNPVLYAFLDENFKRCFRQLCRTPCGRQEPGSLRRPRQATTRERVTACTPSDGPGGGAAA
Chain of Delta-type opioid receptor (Mus musculus) (P32300 whole entry): as above

With NC(=O)[C@H](Cc1ccccc1)NC(=O)[C@@H]1CCCN1C(=O)[C@@H](N)Cc1ccc(O)cc1 (H-Tyr-Pro-Phe-NH2) the Ki [1] was 140 nM, the Ki [2] was > 10000 nM and the Selectivity [3] was > 71.4. It also gave a Relative potency [4] of 0.059.

Compound N[C@@H](Cc1ccc(O)cc1)C(=O)N1CCC[C@H]1C(=O)N[C@@H](Cc1ccccc1)C(=O)NCCNC(=O)[C@H](Cc1ccccc1)NC(=O)[C@@H]1CCCN1C(=O)[C@@H](N)Cc1ccc(O)cc1 (I: H-Tyr-Pro-Phe / II: H-Tyr-Pro-Phe; linker I:C-II:C via Ethylenediamine) has a Ki [1] of 26.1 nM, a Ki [2] of 923 nM and an IC50 (Mu-type opioid receptor) of 218 nM. The IC50 [5] was 1010 nM.

With N[C@@H](Cc1ccc(O)cc1)C(=O)N1CCC[C@H]1C(=O)N[C@@H](Cc1ccccc1)C(=O)N[C@@H](Cc1ccccc1)C(=O)NCCCCNC(=O)[C@H](Cc1ccccc1)NC(=O)[C@H](Cc1ccccc1)NC(=O)[C@@H]1CCCN1C(=O)[C@@H](N)Cc1ccc(O)cc1 the Ki [1] was 168 nM, the Ki [2] was 7020 nM and the IC50 [5] was > 10000 nM.

Work on N[C@@H](Cc1ccc(O)cc1)C(=O)N1CCC[C@H]1C(=O)N[C@@H](Cc1ccccc1)C(=O)N[C@@H](Cc1ccccc1)C(=O)NNC(=O)[C@H](Cc1ccccc1)NC(=O)[C@H](Cc1ccccc1)NC(=O)[C@@H]1CCCN1C(=O)[C@@H](N)Cc1ccc(O)cc1 yielded a Ki [1] of 96.4 nM, a Ki [2] of 539 nM and an IC50 (Mu-type opioid receptor) of 518 nM. The IC50 [5] was 721 nM.

H-YPFYPF-NH2 showed a Relative potency [6] of 4.41, a Relative potency [7] of 0.015 and a Ratio [8] of 2.82. The Selectivity [3] was 61.8, the Relative potency [4] was 0.27 and the Relative potency [9] was 0.013.

Work on NC(=O)[C@H](Cc1ccccc1)NC(=O)[C@@H]1CCCN1C(=O)[C@H](Cc1ccc(O)cc1)NCCC(=O)[C@H](Cc1ccccc1)NC(=O)[C@@H]1CCCN1C(=O)[C@@H](N)Cc1ccc(O)cc1 yielded a Relative potency [6] of 9.06, a Relative potency [7] of 0.048 and a Ratio [8] of 4.64. It also gave a Selectivity [3] of 35.4, a Relative potency [4] of 0.32 and a Relative potency [9] of 0.067.

N[C@@H](Cc1ccc(O)cc1)C(=O)N1CCC[C@H]1C(=O)N[C@@H](Cc1ccccc1)C(=O)NNC(=O)[C@H](Cc1ccccc1)NC(=O)[C@@H]1CCCN1C(=O)[C@@H](N)Cc1ccc(O)cc1 gave a Ki [1] of 30.7 nM, a Ki [2] of 1900 nM and an IC50 (Mu-type opioid receptor) of 1140 nM. It also gave an IC50 [5] of 3200 nM.

With N[C@@H](Cc1ccc(O)cc1)C(=O)N1CCC[C@H]1C(=O)N[C@@H](Cc1ccccc1)C(=O)N[C@@H](Cc1ccccc1)C(=O)NCCNC(=O)[C@H](Cc1ccccc1)NC(=O)[C@H](Cc1ccccc1)NC(=O)[C@@H]1CCCN1C(=O)[C@@H](N)Cc1ccc(O)cc1 the Ki [1] was 86.3 nM, the Ki [2] was 613 nM and the IC50 (Mu-type opioid receptor) was 3540 nM. For the same compound, the IC50 [5] was 29 nM.

With COC(=O)[C@H](Cc1ccccc1)NC(=O)[C@H](Cc1ccccc1)NC(=O)[C@@H]1CCCN1C(=O)[C@@H](N)Cc1ccc(O)cc1 the Ki [1] was 9.07 nM, the Relative potency [7] was 1.3 and the Ratio [8] was 0.88. The Ki [2] was > 10000 nM, the IC50 (Mu-type opioid receptor) was 42.1 nM and the Selectivity [3] was > 1110. For the same compound, the Relative potency [4] was 0.91, the IC50 [5] was 37.2 nM and the Relative potency [9] was 0.35.

With NNC(=O)[C@H](Cc1ccccc1)NC(=O)[C@H](Cc1ccccc1)NC(=O)[C@@H]1CCCN1C(=O)[C@@H](N)Cc1ccc(O)cc1 the Ki [1] was 9.35 nM, the Relative potency [7] was 0.26 and the Ratio [8] was 1.4. For the same compound, the Ki [2] was > 10000 nM, the IC50 (Mu-type opioid receptor) was 132 nM and the Selectivity [3] was > 1070. For the same compound, the Relative potency [4] was 0.88, the IC50 [5] was 185 nM and the Relative potency [9] was 0.11.
